For orientation: pKb means −log10 of the Kb, conventionally taken in molar units. The term Ki denotes a measure of affinity in units of concentration, obtained from inhibition or displacement.

For one data set, the system named is α1L adrenoceptor. Put plainly: Functional antagonism of noradrenaline-induced contractions of rabbit aorta pretreated with chloroethylclonidine. The class given is biochemical. As to conditions: functional affinity, NA-induced contractions. The method, then: Adult male New Zealand rabbits were sacrificed by cervical dislocation. The aorta was removed, placed in Krebs-Henseleit buffer and dissected free of adhering tissue.
Each antagonist concentration was tested using 2-3 aortic rings from different rabbits.
Dose ratios (i.e., the ratio between the concentrations of noradrenaline required to produce half-maximal response in the presence and in the absence of the test antagonist) were calculated at each concentration of the compounds.

For data set [1], the system named is urethral contractions (UP) induced by noradrenaline (NA). The data set can be described thus: Urethral contractions induced by noradrenaline injection in anaesthetised dogs, i.v. administration. The class given is in vivo. As to conditions: dog; for ED50: Canis lupus familiaris, iv, dose inhibiting by 50% urethral contractions induced by noradrenaline, read-out: UP ID50 NA; for R1 (DBP/NA): ratio DBP ED25 / UP ID50 NA. The method, then:
(§1) The experiments were performed according to the method of Imagawa J. et al., J Pharmacol. Methods 22, 103-111 (1989), with substantial modifications, as follows: adult male beagle dogs, weighing 8-10 kg, were anaesthetised with pentobarbital sodium (30 mg/kg i.v. and 2 mg/kg/h i.v.), intubated and spontaneously ventilated with room air. In order to monitor systemic blood pressure (BP), a polyethylene (PE) catheter was introduced into the aortic arch through the left femoral artery. A collateral of the left femoral vein was cannulated for infusion of anaesthetic, and the right femoral vein was cannulated for administration of the compounds. For intraarterial (i.a.) injection of noradrenaline (NA), a PE catheter was introduced into the lower portion of the abdominal aorta via the right external iliac artery. Through such procedure, NA was selectively distributed to the lower urinary tract. A paramedian vertical suprapubic incision extending from the base of the pelvis to the mid-abdominal region was made and the bladder and the prostate were exposed. The bladder was manually emptied with a syringe. […] The distal end of the right or left branch of the nerve was placed on a bipolar platinum electrode. Prostatic urethral pressure was monitored with a Mikro-tip cathe[…]) introduced into the bladder via the external urethral meatus, and withdrawn until the pressure transducer was positioned in the prostatic region of the urethra. A ligature was secured between the neck of the bladder and urethra to isolate the response of the latter and to avoid any interaction with the bladder. Another ligature was put around the Mikro-tip catheter at the external meatus, to secure the catheter itself. […] Both i.a. injections of NA and stimulations of the hypogastric nerve were repeated 5 minutes after every dosing of test compound with intervals of about 5 minutes between two stimulations. In order to compare the effects of the administered compound, dose/response curves were constructed by computing, at the peak effect, the percent decrease in diastolic blood pressure and the percent inhibition of the increase in urethral pressure induced by both types of stimulation used.

The target in a further data set is T1, α1a adrenergic receptor (Homo sapiens, UniProt P35348).
T1 sequence (P35348 1-466): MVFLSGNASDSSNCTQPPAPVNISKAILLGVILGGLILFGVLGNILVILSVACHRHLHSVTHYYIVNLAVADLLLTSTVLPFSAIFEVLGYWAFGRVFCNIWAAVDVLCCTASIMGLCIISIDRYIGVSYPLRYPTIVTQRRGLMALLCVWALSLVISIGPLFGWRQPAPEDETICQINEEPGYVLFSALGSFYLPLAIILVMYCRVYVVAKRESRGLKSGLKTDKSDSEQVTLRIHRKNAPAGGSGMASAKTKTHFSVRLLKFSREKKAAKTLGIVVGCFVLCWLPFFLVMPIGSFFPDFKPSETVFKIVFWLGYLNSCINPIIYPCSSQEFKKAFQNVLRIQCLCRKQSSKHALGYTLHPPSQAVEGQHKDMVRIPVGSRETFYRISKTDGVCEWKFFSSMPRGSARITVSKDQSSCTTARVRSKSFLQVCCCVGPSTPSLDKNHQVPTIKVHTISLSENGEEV
Put plainly: Radioligand binding assay ([3H]prazosin) on cloned α1-adrenoceptor subtype, membranes of transfected cells.

Data set [2] addresses T2, recombinant α1d-adrenoceptor (Homo sapiens, UniProt P25100).
T2 sequence (P25100 1-572): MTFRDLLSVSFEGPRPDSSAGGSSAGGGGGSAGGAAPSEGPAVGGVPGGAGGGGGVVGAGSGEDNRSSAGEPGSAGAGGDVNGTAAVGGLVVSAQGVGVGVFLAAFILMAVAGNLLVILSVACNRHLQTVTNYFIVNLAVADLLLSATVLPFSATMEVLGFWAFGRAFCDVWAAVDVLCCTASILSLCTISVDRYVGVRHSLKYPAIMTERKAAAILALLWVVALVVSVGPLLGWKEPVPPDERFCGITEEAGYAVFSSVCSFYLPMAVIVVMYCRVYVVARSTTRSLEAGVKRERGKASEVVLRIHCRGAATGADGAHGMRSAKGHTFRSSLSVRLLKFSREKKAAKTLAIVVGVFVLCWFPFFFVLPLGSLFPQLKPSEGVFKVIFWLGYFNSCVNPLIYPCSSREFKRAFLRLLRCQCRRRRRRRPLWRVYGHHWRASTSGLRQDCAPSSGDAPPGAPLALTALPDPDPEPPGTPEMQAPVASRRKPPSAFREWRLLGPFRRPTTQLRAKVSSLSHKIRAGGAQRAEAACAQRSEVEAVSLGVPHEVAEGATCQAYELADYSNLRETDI
The data set is described as above.
Description: (§2) Determination of affinity for cloned subtypes of the cloned α1-adrenoceptor was performed in membranes from cells transfected by electroporation with DNA expressing the genes encoding each α1-adrenoceptor subtype.
(§3) Non-specific binding was determined in the presence of 10 µM phentolamine. Incubation was stopped by addition of ice-cold Tris buffer and rapid filtration through 0.2%-polyethyleneimine pretreated Schleicher & Schuell GF52 filters. […] The homogenates were centrifuged at 40000 × g × 20 minutes and the membranes were resuspended in a small volume of ice-cold buffer containing Tris 5 mM and EDTA 5 mM (pH 7.4) and immediately frozen and stored at -70°C until use.
Data were expressed as mean of Ki.

The test system of data set [3] is urethral contractions (UP) induced by hypogastric-nerve stimulation (HYP). The data set can be described thus: Urethral contractions induced by hypogastric-nerve stimulation in anaesthetised dogs, i.v. administration. The class given is in vivo. The conditions noted are these: Canis lupus familiaris, iv, dog, dose inhibiting by 50% urethral contractions induced by hypogastric-nerve stimulation, read-out: UP ID50 HYP. How it is done: as §1, with “In order to compare the effects of the administered compound, dose/response curves were constructed by computing, at the peak effect, the percent decrease in diastolic blood pressure and the percent inhibition of the increase in urethral pressure induced by both types of stimulation used.” left out

For data set [4], the system named is diastolic blood pressure (DBP). Put plainly: Effect on diastolic blood pressure in anaesthetised dogs, i.v. administration. The class given is in vivo. As to conditions: dog, dose inducing a 25% decrease in diastolic blood pressure, one value spanning c3 and c4. How it is done: The experiments were performed according to the method of Imagawa J. et al., J Pharmacol. Methods 22, 103-111 (1989), with substantial modifications, as follows: adult male beagle dogs, weighing 8-10 kg, were anaesthetised with pentobarbital sodium (30 mg/kg i.v. and 2 mg/kg/h i.v.), intubated and spontaneously ventilated with room air. In order to monitor systemic blood pressure (BP), a polyethylene (PE) catheter was introduced into the aortic arch through the left femoral artery. A collateral of the left femoral vein was cannulated for infusion of anaesthetic, and the right femoral vein was cannulated for administration of the compounds. For intraarterial (i.a.) injection of noradrenaline (NA), a PE catheter was introduced into the lower portion of the abdominal aorta via the right external iliac artery. Through such procedure, NA was selectively distributed to the lower urinary tract. A paramedian vertical suprapubic incision extending from the base of the pelvis to the mid-abdominal region was made and the bladder and the prostate were exposed. The bladder was manually emptied with a syringe. […] The distal end of the right or left branch of the nerve was placed on a bipolar platinum electrode. Prostatic urethral pressure was monitored with a Mikro-tip catheter (5F) introduced into the bladder via the external urethral meatus, and withdrawn until the pressure transducer was positioned in the prostatic region of the urethra. A ligature was secured between the neck of the bladder and urethra to isolate the response of the latter and to avoid any interaction with the bladder. Another ligature was put around the Mikro-tip catheter at the external meatus, to secure the catheter itself. The hypogastric nerve stimulation was made with a train of rectangular pulses of 10-15 V, 10-30 Hz, width 5 msec, 8 sec duration.
After a stabilising period following the surgical procedure (30 minutes), in which arterial and prostatic urethral pressure were continuously monitored as basal values, i.a. administration of NA and stimulation of the hypogastric nerve were alternately made at intervals of 10 minutes.
The dose of NA and the parameter of hypogastric nerve stimulation chosen were such as to produce an increase of at least 100% in urethral pressure. The test compounds were administered i.v. in a cumulative manner with intervals of 15-20 min between administrations. Both i.a. injections of NA and stimulations of the hypogastric nerve were repeated 5 minutes after every dosing of test compound with intervals of about 5 minutes between two stimulations. […]

Description for α1a adrenergic receptor: as §2, §3
Data were expressed as mean of Ki.

Take `Cc1onc(-c2ccccc2)c1C(=O)NCCCN1CCN(c2ccccc2OCC(F)(F)F)CC1` [Example 3, 5-Methyl-3-phenyl-N-{3-[4-[2-(2,2,2-trifluoroethoxy)-phenyl]-1-piperazinyl]-propyl}isoxazole-4-carboxamide]: the pKb with α1L adrenoceptor is reported as 8.47. For the same compound, the ED50 in data set [1] was 1.3 µg/kg; in data set [3] it was 2.4 µg/kg. The “R1 (DBP/NA)” value in data set [1] is 396. Besides, the Ki at α1a adrenergic receptor turned out to be 0.066 nM; in data set [2], 1.45 nM. Also, the “DBP ED25” value in data set [4] was determined as 514.7 µg/kg.

As for `Cc1onc(-c2ccccc2)c1C(=O)NCCCN1CCN(c2cc(F)ccc2OCC(F)(F)F)CC1` [Example 5, N-{3-[4-[5-Fluoro-2-(2,2,2-trifluoroethoxy)-phenyl]-1-piperazinyl]-propyl}-5-methyl-3-phenylisoxazole-4-carboxamide], in the data set with α1L adrenoceptor, the pKb worked out at 8.79. In data set [1], the ED50 was determined as 2.7 µg/kg and the “R1 (DBP/NA)” value is 73. In data set [3], the ED50 is 3.4 µg/kg. The “DBP ED25” value in data set [4] is on record as 197.0 µg/kg.

The values above are taken from patent publication EP1226131B1, “ISOXAZOLECARBOXAMIDE DERIVATIVES” (RECORDATI INDUSTRIA CHIMICA E FARMACEUTICA S.p.a., priority 1999, dated 2001).
